Data published in ChEMBL document CHEMBL1201862, “PubChem BioAssay data set” (2004).
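96-well plates; 48 h exposure; 5 concentrations. Endpoints by linear interpolation between flanking doses. Not reached: highest tested concentration assigned. GI50 = concentration required for 50% inhibition of growth.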 Activity calls are given as the source filed them. Rule as the data show it: active = GI50 up to about 1.1 µM and inactive = higher.

Experiments:
Assay in all cases: DTP human tumour cell line panel, 48 h
HL-60 = tested on: HL-60
BT-549 = tested on: BT-549
HOP-92 = tested on: HOP-92
786-0 = tested on: 786-0
UACC-257 = tested on: UACC-257
SK-OV-3 = tested on: SK-OV-3
SK-MEL-2 = tested on: SK-MEL-2
SK-MEL-5 = tested on: SK-MEL-5
K562 = tested on: K562
PC-3 = tested on: PC-3
MOLT-4 = tested on: MOLT-4
HCT-116 = tested on: HCT-116
KM12 = tested on: KM12
UACC-62 = tested on: UACC-62
OVCAR-8 = tested on: OVCAR-8
UO-31 = tested on: UO-31
Malme-3M = tested on: Malme-3M

SMILES	GI50 (HL-60)	GI50 (BT-549)	GI50 (HOP-92)	GI50 (786-0)	GI50 (UACC-257)	GI50 (SK-OV-3)	GI50 (SK-MEL-2)	GI50 (SK-MEL-5)	GI50 (K562)	GI50 (PC-3)	GI50 (MOLT-4)	GI50 (HCT-116)	GI50 (KM12)	GI50 (UACC-62)	GI50 (OVCAR-8)	GI50 (UO-31)	GI50 (Malme-3M)
CC1=C(C(=O)NNC(=O)C(N)=O)CC(C(=O)NNC(=O)C(N)=O)=C(C)N1	47.4 µM (inactive)	> 100 µM (inactive)	> 100 µM (inactive)	> 100 µM (inactive)	> 100 µM (inactive)	> 100 µM (inactive)	> 100 µM (inactive)	> 100 µM (inactive)	> 100 µM (inactive)	> 100 µM (inactive)	> 100 µM (inactive)	> 100 µM (inactive)	> 100 µM (inactive)	> 100 µM (inactive)	> 100 µM (inactive)	> 100 µM (inactive)	–
CC(C)(C)[Si](C)(C)OCC1OC(n2cnc3c(N)ncnc32)C2OC(=S)OC12 (stereo unspecified)	> 100 µM (inactive)	25.1 µM (inactive)	70.8 µM (inactive)	–	43.3 µM (inactive)	19.5 µM (inactive)	26 µM (inactive)	17 µM (inactive)	4.84 µM (inactive)	22 µM (inactive)	16.1 µM (inactive)	27.4 µM (inactive)	35 µM (inactive)	23.8 µM (inactive)	35.1 µM (inactive)	23.5 µM (inactive)	23.6 µM (inactive)
CCOC(=O)NC(C(F)(F)F)(C(F)(F)F)P(=O)(OC(C)C)OC(C)C	> 100 µM (inactive)	> 100 µM (inactive)	–	> 100 µM (inactive)	> 100 µM (inactive)	> 100 µM (inactive)	> 100 µM (inactive)	> 100 µM (inactive)	> 100 µM (inactive)	> 100 µM (inactive)	> 100 µM (inactive)	> 100 µM (inactive)	> 100 µM (inactive)	> 100 µM (inactive)	> 100 µM (inactive)	> 100 µM (inactive)	> 100 µM (inactive)
O=C1/C(=C/c2cccc([N+](=O)[O-])c2)CCCc2ccccc21	4.94 µM (inactive)	12.5 µM (inactive)	14.4 µM (inactive)	13.7 µM (inactive)	16.6 µM (inactive)	29.4 µM (inactive)	11 µM (inactive)	–	3.27 µM (inactive)	11 µM (inactive)	4.95 µM (inactive)	5.4 µM (inactive)	2.42 µM (inactive)	10.1 µM (inactive)	12.7 µM (inactive)	16.4 µM (inactive)	10.3 µM (inactive)
O=C1CC(/C=C/c2ccco2)=C(O)C1=O	33.7 µM (inactive)	8.49 µM (inactive)	13.8 µM (inactive)	–	15.7 µM (inactive)	21.9 µM (inactive)	16.4 µM (inactive)	13.7 µM (inactive)	12.1 µM (inactive)	10.2 µM (inactive)	14 µM (inactive)	13.6 µM (inactive)	13.8 µM (inactive)	15.3 µM (inactive)	13.8 µM (inactive)	20.7 µM (inactive)	11.6 µM (inactive)
Nc1c(C(=O)c2ccccc2)nnc2ccccc12	< 0.01 µM (active)	18.7 µM (inactive)	18.8 µM (inactive)	30.5 µM (inactive)	28.2 µM (inactive)	–	17.4 µM (inactive)	16.7 µM (inactive)	30.8 µM (inactive)	24.8 µM (inactive)	36.1 µM (inactive)	24.6 µM (inactive)	20.4 µM (inactive)	17.5 µM (inactive)	33.7 µM (inactive)	24.7 µM (inactive)	27 µM (inactive)
O=C(N/N=C(/c1ccccc1)C(F)(F)F)c1ccncc1	> 100 µM (inactive)	> 100 µM (inactive)	> 100 µM (inactive)	–	–	> 100 µM (inactive)	> 100 µM (inactive)	> 100 µM (inactive)	35.1 µM (inactive)	> 100 µM (inactive)	64.3 µM (inactive)	> 100 µM (inactive)	> 100 µM (inactive)	> 100 µM (inactive)	> 100 µM (inactive)	> 100 µM (inactive)	> 100 µM (inactive)
Oc1cccc(-c2ccc3c4c2O[C@H]2c5[nH]c6ccccc6c5C[C@@]5(O)[C@@H](C3)N(CC3CC3)CC[C@]425)c1	1.65 µM (inactive)	10 µM (inactive)	2.13 µM (inactive)	1.62 µM (inactive)	–	–	2.46 µM (inactive)	3.48 µM (inactive)	–	1.98 µM (inactive)	–	1.82 µM (inactive)	1.98 µM (inactive)	–	1.83 µM (inactive)	1.67 µM (inactive)	1.86 µM (inactive)
Nc1cc(Cl)cc2cc(Cl)cnc12	43.1 µM (inactive)	> 100 µM (inactive)	31.8 µM (inactive)	> 100 µM (inactive)	> 100 µM (inactive)	> 100 µM (inactive)	–	> 100 µM (inactive)	> 100 µM (inactive)	72.3 µM (inactive)	44.5 µM (inactive)	> 100 µM (inactive)	> 100 µM (inactive)	75.2 µM (inactive)	> 100 µM (inactive)	34.8 µM (inactive)	> 100 µM (inactive)
CSc1ccc(-c2cc(-c3nc4ccccc4[nH]3)nc3[nH]c(-c4nc5ccccc5[nH]4)cc(=O)c23)cc1	> 100 µM (inactive)	85.3 µM (inactive)	> 100 µM (inactive)	> 100 µM (inactive)	> 100 µM (inactive)	> 100 µM (inactive)	> 100 µM (inactive)	–	42 µM (inactive)	> 100 µM (inactive)	> 100 µM (inactive)	39.4 µM (inactive)	60.3 µM (inactive)	92.5 µM (inactive)	71 µM (inactive)	> 100 µM (inactive)	> 100 µM (inactive)
Cn1c(=O)c2c(no[n+]2[O-])n(C)c1=O	–	21.7 µM (inactive)	19.1 µM (inactive)	23.8 µM (inactive)	36.9 µM (inactive)	53.5 µM (inactive)	45 µM (inactive)	42.6 µM (inactive)	> 100 µM (inactive)	> 100 µM (inactive)	> 100 µM (inactive)	> 100 µM (inactive)	52 µM (inactive)	19.5 µM (inactive)	19.1 µM (inactive)	31 µM (inactive)	18.5 µM (inactive)
Cc1cccc(C2NC(=O)c3ccccc3N2)c1 (stereo unspecified)	0.802 µM (active)	5.68 µM (inactive)	> 58.9 µM (inactive)	4.55 µM (inactive)	> 31.3 µM (inactive)	4.4 µM (inactive)	–	3.38 µM (inactive)	0.906 µM (active)	3.95 µM (inactive)	1.8 µM (inactive)	3.28 µM (inactive)	3.21 µM (inactive)	6.24 µM (inactive)	6.1 µM (inactive)	> 26.4 µM (inactive)	17.7 µM (inactive)
CC(=O)NC1C(OCc2ccccc2)OC(CO)C(O)C1OCC(=O)NC(C)C(=O)NC(CCC(=O)NCCCCCNc1c2ccccc2nc2cccc([N+](=O)[O-])c12)C(N)=O (stereo unspecified)	< 0.0001 µM (active)	< 0.0001 µM (active)	< 0.0001 µM (active)	< 0.0001 µM (active)	< 0.0001 µM (active)	–	< 0.0001 µM (active)	< 0.0001 µM (active)	< 0.0001 µM (active)	< 0.0001 µM (active)	< 0.0001 µM (active)	< 0.0001 µM (active)	< 0.0001 µM (active)	–	< 0.0001 µM (active)	< 0.01 µM (active)	< 0.0001 µM (active)
COc1ccc(/N=C2/SC(=N/N=c3\sc4ccccc4n3C)S/C2=N/c2ccc(OC)cc2)cc1	–	67.9 µM (inactive)	89.1 µM (inactive)	47.3 µM (inactive)	> 100 µM (inactive)	76.7 µM (inactive)	> 100 µM (inactive)	98.9 µM (inactive)	2.92 µM (inactive)	> 100 µM (inactive)	13.1 µM (inactive)	29.8 µM (inactive)	> 100 µM (inactive)	37.6 µM (inactive)	> 100 µM (inactive)	> 100 µM (inactive)	> 100 µM (inactive)
CCOC(=O)NNC(=O)NCCCCNC(=O)NNC(=O)OCC	> 100 µM (inactive)	> 100 µM (inactive)	> 100 µM (inactive)	> 100 µM (inactive)	> 100 µM (inactive)	> 100 µM (inactive)	> 100 µM (inactive)	> 100 µM (inactive)	> 100 µM (inactive)	> 100 µM (inactive)	> 100 µM (inactive)	> 100 µM (inactive)	98.2 µM (inactive)	> 100 µM (inactive)	> 100 µM (inactive)	> 100 µM (inactive)	–
CN1Cc2cc(O)c(O)cc2C(O)C1 (stereo unspecified)	38.3 µM (inactive)	> 100 µM (inactive)	> 100 µM (inactive)	–	> 100 µM (inactive)	> 100 µM (inactive)	> 100 µM (inactive)	> 100 µM (inactive)	> 100 µM (inactive)	> 100 µM (inactive)	> 100 µM (inactive)	> 100 µM (inactive)	> 100 µM (inactive)	> 100 µM (inactive)	> 100 µM (inactive)	83 µM (inactive)	> 100 µM (inactive)
O=c1n(-c2ccccc2)c(=O)n2n1C1C=CC2CCCCCC1	29.4 µM (inactive)	97.3 µM (inactive)	> 100 µM (inactive)	> 100 µM (inactive)	> 100 µM (inactive)	> 100 µM (inactive)	> 100 µM (inactive)	> 100 µM (inactive)	–	> 100 µM (inactive)	> 100 µM (inactive)	> 100 µM (inactive)	> 100 µM (inactive)	> 100 µM (inactive)	> 100 µM (inactive)	> 100 µM (inactive)	> 100 µM (inactive)
